Measured values published in the METLIN SMRT retention time set (Domingo-Almenara et al. 2019).

Test: gradient 5% acetonitrile 3 min, to 50% in 2 min, to 85% in 15 min, held 3 min, 100 µL/min
Conditions: column: Zorbax Extend-C18 2.1 x 50 mm; eluents: water / acetonitrile, 0.1% formic acid
Summary of the method: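 Pure standards were analyzed in mixtures of ~100 molecules using HPLC coupled to a quadrupole time-of-flight mass spectrometer, in both positive and negative ionization mode. Separation used a Zorbax Extend-C18 column (2.1 × 50 mm, 1.8 μm) at 100 μL/min, with water and acetonitrile each containing 0.1% formic acid. Dead and dwell volumes were 40 μL and 900 μL, and data were collected over 3 months. Retention time was read from computationally picked adduct peaks, each inspected manually.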

| RP-LC retention time [s] | Structure (SMILES) |
| --- | --- |
| 742 | O=C1NC2(CCN(C(=O)c3ccccc3F)CC2)Nc2c(Cl)cccc21 |
| 841 | Cc1ccc(F)cc1NC(=O)Cn1c(=O)nc(N2CCCCC2)c2ccccc21 |
| 1270 | COc1ccc(-c2cnc(NC(=O)[C@H]3CCCCN3S(=O)(=O)c3ccc(C)cc3)s2)cc1 |
| 790 | O=C1CN(C(=O)Cc2ccc(OC(F)(F)F)cc2)C2(CCCC2)CN1 |
| 801 | CCOc1ccccc1NC(=O)N1CCC(n2cnc3ccccc3c2=O)CC1 |
| 1280 | COc1ccc(Cl)cc1NC(=O)C1(c2cccs2)CCCC1 |
| 741 | CNC(=O)c1cc2cc(Cl)ccc2[nH]1 |
| 923 | O=C(C1CC1)N1CCc2sc(S(=O)(=O)NCc3cccc(Cl)c3)cc2C1 |
| 678 | CCCNC(=O)C1CCCN(c2ccc(SCC(=O)Nc3ccc(C)c(C)c3)nn2)C1 (centres undefined) |
| 765 | O=C(c1c(F)cccc1F)N1CCN=C1N1CCN(c2cccc(Cl)c2)CC1 |
| 724 | O=C(CN1CCN(C(=O)Nc2ccc(Cl)cc2)CC1=O)NC1CCCCC1 |
| 908 | O=C(Cc1csc(-c2ccccc2F)n1)NCCc1c[nH]c2ccc(F)cc12 |
| 1010 | COc1ccc(NC(=O)c2cc(S(=O)(=O)N3CCCC(C)C3)cn2C)c(OC)c1 (centres undefined) |
| 602 | COCC1CN(C2CCC2)CC12CCN(C(=O)c1cccs1)CC2 (centres undefined) |
| 573 | Cc1nnc2n1CCC(NC(=O)Cc1ccsc1)CC2 (centres undefined) |
| 826 | COc1ccc(OC)c(CNC(=O)c2nnc(-c3ccc(S(=O)(=O)N4CCOCC4)cc3)o2)c1 |
| 694 | CSc1cccc(NC(=O)Cn2c(N3CCOCC3)nc(C)cc2=O)c1 |
| 568 | COc1ccc(NC(=O)N2CCc3[nH]cnc3C2c2ccccn2)cc1OC (centres undefined) |
| 877 | Cc1nc2ccc3nc(NC(=O)COc4ccccc4F)sc3c2s1 |
| 646 | COc1ccccc1N1CCN(C(=O)c2cn(-c3ccc(NC(C)=O)cn3)cn2)CC1 |
| 1220 | Cc1cccc(Sc2nccnc2N2CCC(C(=O)NCCC3=CCCCC3)CC2)c1 |
| 998 | Cc1ccc(OCC(=O)Nc2nnc(SCc3nnc(-c4ccccc4)o3)s2)c(C)c1 |
| 825 | CCc1ccc(CNC(=O)C2CCN(Cc3cn(CC)c4ccc(Cl)cc34)CC2)cc1 |
| 805 | O=C(CCc1ccccc1)Nc1nnc(C2CC(=O)N(c3ccc(Cl)cc3)C2)o1 (centres undefined) |
| 770 | O=C(Nc1cccc(-c2ccc(N3CCOCC3)nn2)c1)Nc1ccc(F)c(Cl)c1 |
| 918 | COc1ccc(OC)c(NC(=O)N(C)CCc2noc(-c3ccccc3)n2)c1 |
| 631 | O=C(c1cccs1)N1CCN(c2ccc3nnc(-c4ccco4)n3n2)CC1 |
| 907 | COc1ccc(S(=O)(=O)N2C[C@@H]3C[C@H](NC(=O)c4ccccc4)[C@H]2C3)cc1Cl |
| 750 | CCC(=O)N1CCc2cc(N3CC(C(=O)Nc4cccc(OC)c4)CC3=O)ccc21 (centres undefined) |
| 679 | Cn1cc(CN2CCC(C(=O)NCCc3ccco3)CC2)c2cc(Cl)ccc21 |

Further lines, the molecule ahead of its results:

| Structure (SMILES) | RP-LC retention time [s] |
| --- | --- |
| COc1cccc(N2C(=O)C3N=NN(Cc4nc(-c5ccccc5C)no4)C3C2=O)c1 (centres undefined) | 976 |
| CCCN1C(=O)COc2ccc(-c3noc(Cc4c[nH]c5ccccc45)n3)cc21 | 1040 |
| Cc1ccc(-c2cc(C(F)(F)F)on2)cc1S(=O)(=O)N1CCC(C)CC1 | 1280 |
| CN(C)S(=O)(=O)N1CC(c2noc(-c3cccnc3)n2)C2(CCOCC2)C1 (centres undefined) | 713 |
| Cc1nc(C2CN(S(=O)(=O)c3cccc(C(F)(F)F)c3)CC23CCOCC3)no1 (centres undefined) | 856 |
| Cc1ccc(CCC(=O)Nc2ccc(SC(F)F)cc2)o1 | 919 |
| CSc1ccc(-c2noc(Cn3nc(-c4ccccc4)ccc3=O)n2)cc1 | 1040 |
| CCc1noc([C@@H]2CC(F)(F)CN2C(=O)Cn2ccnc2)n1 | 570 |
| CCOC(=O)CNC(=O)NCC(=O)N1CCc2ccccc21 | 658 |
| Cc1nc(N(C)C)cc(N2CCN(C(=O)c3cccc(Br)c3)CC2)n1 | 656 |
| CCOc1ccc(NC(=O)Cn2c(=O)n(-c3ccc(C)cc3)c(=O)c3c2cc(C)n3C)cc1 | 824 |
| CCCN1CCN(C(=O)C2CC(=O)N(c3ccc4c(c3)CCN4C(=O)CC)C2)CC1 (centres undefined) | 566 |
| CC(NC(=O)C1c2ccccc2CCN1C(=O)C1CC1)c1ccc(F)cc1 (centres undefined) | 875 |
| CCC(CN1CCOCC1)NC(=O)c1c2c(cn(-c3ccccc3)c1=O)C(=O)CC(C)(C)C2 (centres undefined) | 661 |
| O=C(c1sc2ncccc2c1-n1cccc1)N1CCN(c2ncccn2)CC1 | 866 |
| O=C(NCc1nc(-c2ccc(N3CCCCCC3)cc2)no1)c1ccco1 | 1020 |
| CCC(CC)CN1CCC(n2c(C)cnc2-c2ccncc2)C1 (centres undefined) | 542 |
| CCCn1c(=O)c(C)nc2cc(-c3noc(C4CC(=O)N(C5CCCC5)C4)n3)ccc21 (centres undefined) | 878 |
| Cc1oc(C(C)C)nc1C(=O)NCc1ccccc1C(F)(F)F | 1050 |
| O=C(O)C1CN(CCCP(=O)(O)O)CCN1 (centres undefined) | 627 |

| Structure (SMILES) | RP-LC retention time [s] |
| --- | --- |
| CC(C)(O)CC[C@@H](O)[C@](C)(O)[C@H]1CC[C@@]2(O)C3=CC(=O)[C@@H]4C[C@@H](O)[C@@H](O)C[C@]4(C)[C@H]3CC[C@]12C | 629 |
| Cc1ncsc1CN1CCc2nn(Cc3ccccc3)c(=O)n2CC1 | 604 |
| COC(=O)c1ncn2c1C(=O)N(c1ccc(F)cc1)C(C)(C(=O)NCc1ccccc1)C2 (centres undefined) | 691 |
| Cn1nccc1C(=O)N1CCCCCCNC(=O)[C@@H]2CCCC[C@@H]21 | 705 |
| CC(=O)N1CCc2cc(S(=O)(=O)C(C)CC(=O)N3CCN(c4ccc(C)cc4C)CC3)ccc21 (centres undefined) | 968 |
| Cc1nc(C)c(-c2ccc(=O)n(CCNC(=O)c3csc(-c4ccccc4)n3)n2)s1 | 683 |
| CCC(C)n1c(=O)c2ccccc2n(Cc2nc(-c3cccc(Br)c3)no2)c1=O (centres undefined) | 1290 |
| COCCN(Cc1ccc(Cl)cc1)Cc1cc(=O)n2cc(C)ccc2n1 | 662 |
| Cc1cc2nc(C)c(=O)n(CC(=O)NCCCN(C)C3CCCCC3)c2cc1C | 624 |
| O=C(NCc1ccc(F)cc1)C1CCCN(c2nc3ccccc3n(Cc3ccccc3)c2=O)C1 (centres undefined) | 1140 |
| CCCn1ccc2sc(C)c(C(=O)NC3CCCCC3)c2c1=O | 884 |
| Cc1cccc(NC(=O)C2CCCN(S(=O)(=O)c3c[nH]c(C(=O)N4CCCC4)c3)C2)c1C (centres undefined) | 802 |
| Fc1cccc(Cl)c1CN1CC(c2nc(C3CC3)no2)C1 | 564 |
| Cn1nc(C2CCN(C(=O)NCc3ccccc3)CC2)c2c1CCOC2 | 668 |
| Cc1ccc(C)c(OCC(=O)Nc2nc(-c3ccc(Br)cc3)cs2)c1C | 1430 |
| O=C(NCCC1CCN(C(=O)Nc2cc(F)ccc2F)CC1)C1CC1 | 715 |
| Cc1nnc(C2CCCCCN2S(=O)(=O)c2ccc(F)c(C)c2)o1 (centres undefined) | 893 |
| CN(CCc1ccc(Cl)c(Cl)c1)CCN1CCCC1 | 646 |
| CC1CCN(C(=O)C2CC(=O)N(c3ccccc3)C2)CC1 (centres undefined) | 764 |
| CC(C)c1ccc(NC(=O)Cn2ccc3c(=O)n(C)c(=O)n(C)c32)cc1 | 772 |

| Structure (SMILES) | RP-LC retention time [s] |
| --- | --- |
| CCC(C)NC(=O)Cn1cnc2nc(N3CCCC(C(=O)NC)C3)sc2c1=O (centres undefined) | 608 |
| Cc1ccc(-c2nc(C3CCN(S(=O)(=O)c4cccc(F)c4)CC3)no2)cc1 | 1160 |
| Cc1noc(-c2nn(C)c3c2CN(C(=O)NC(C)C)CC3)n1 | 640 |
| COc1ccc(-c2nc3cnccn3c2Nc2ccc3c(c2)OCCO3)cc1OC | 717 |
| O=c1[nH]c2ccc(S(=O)(=O)Nc3cccc(C(F)(F)F)c3)cc2[nH]1 | 664 |
| O=C(O)c1cc(N2CCN(CC(=O)N3CCCCCC3)CC2)ccc1NC(=O)C1CCC1 | 636 |
| Cc1cc(-c2nn3c(COc4ccc(Cl)cc4)nnc3s2)no1 | 948 |
| Cn1c(CNC(=O)CN2CCN(Cc3ccc(F)cc3)C2=O)nc2ccccc21 | 628 |
| CCc1cc(=O)n(CC(=O)N(C)c2cccc(C)c2)c(-c2ccccc2)n1 | 1110 |
| Cc1ccc(CNC(=O)C2CCN(C(=O)c3cc(-c4ccncc4)n[nH]3)CC2)o1 | 586 |
| O=C1COc2ccc(C(=O)N3CCCCC3)cc2N1 | 633 |
| Cc1ccc(NC(=O)Cn2nc(C)cc2C(=O)Nc2cc(C)ccc2C)cc1 | 981 |
| O=C(NCC1CCCCC1)C1CCN(C(=O)c2ncn3c2COC(c2ccc(F)cc2)C3)CC1 (centres undefined) | 846 |
| Cc1cnc(-c2ccccc2)n1C1CN(Cc2ccc(F)cc2F)C1 | 572 |
| COC(=O)c1cccc(Nc2c(-c3ccc(F)cc3)nc3cnc(Br)cn23)c1 | 980 |
| CCCc1noc(-c2ccc(-n3cnc(C(=O)NC4CCCCC4)c3)nc2)n1 | 741 |
| CSc1ccccc1C(=O)N1CCC(C(=O)NCc2nc(C)no2)CC1 | 628 |
| CCc1nnc2c(=O)n(CC(=O)NC(C)c3ccccc3)c3cccnc3n12 (centres undefined) | 714 |
| CC1(C(=O)NCc2ccccc2)CN(S(C)(=O)=O)CC(=O)N1c1ccccc1F (centres undefined) | 773 |
